In ChEMBL document CHEMBL5303573, “Mapping human microbiome drug metabolism by gut bacteria and their genes” (Nature, 2019):

Tests used:
[1] = bacteroides thetaiotaomicron, 12 h, 2 µM
Description: The drug is tested on Bacteroides thetaiotaomicron strain: VPI-5482 for biotransformation. The drug concentrations were measured before and after a 12-h incubation by liquid-chromatography-coupled mass spectrometry (LC–MS)

[2] = The drug is tested on Eggerthella lenta strain: ATCC25559 for biotransformation. The drug concentrations were measured before and after a 12-h incubation by liquid-chromatography-coupled mass spectrometry (LC–MS); conditions: 2 µM
[3] = The drug is tested on Alistipes indistinctus strain: DSM22520 for biotransformation. The drug concentrations were measured before and after a 12-h incubation by liquid-chromatography-coupled mass spectrometry (LC–MS); conditions: 2 µM
[4] = The drug is tested on Eubacterium hallii strain: DSM3353 for biotransformation. The drug concentrations were measured before and after a 12-h incubation by liquid-chromatography-coupled mass spectrometry (LC–MS); conditions: anaerobutyricum hallii, 2 µM
[5] = anaerostipes sp., 12 h, 2 µM
Description: The drug is tested on Anaerostipes sp. strain: fecal isolate for biotransformation. The drug concentrations were measured before and after a 12-h incubation by liquid-chromatography-coupled mass spectrometry (LC–MS)

[6] = bacteroides intestinalis, 12 h, 2 µM
Description: The drug is tested on Bacteroides intestinalis strain: DSM17393 for biotransformation. The drug concentrations were measured before and after a 12-h incubation by liquid-chromatography-coupled mass spectrometry (LC–MS)

[7] = The drug is tested on Bacteroides xylanisolvens strain: DSM18836 for biotransformation. The drug concentrations were measured before and after a 12-h incubation by liquid-chromatography-coupled mass spectrometry (LC–MS); conditions: 2 µM
[8] = The drug is tested on Bacteroides cellulosilyticus strain: DSM14838 for biotransformation. The drug concentrations were measured before and after a 12-h incubation by liquid-chromatography-coupled mass spectrometry (LC–MS); conditions: 2 µM
[9] = The drug is tested on Bifidobacterium breve strain: DSM20213 for biotransformation. The drug concentrations were measured before and after a 12-h incubation by liquid-chromatography-coupled mass spectrometry (LC–MS); conditions: 2 µM
[10] = The drug is tested on Clostridium asparagiforme strain: DSM15981 for biotransformation. The drug concentrations were measured before and after a 12-h incubation by liquid-chromatography-coupled mass spectrometry (LC–MS); type: ADME; design: dose 2 uM, timepoint 0 vs 12 hours; conditions: enterocloster asparagiformis, 2 µM
[11] = The drug is tested on Bacteroides vulgatus strain: ATCC8482 for biotransformation. The drug concentrations were measured before and after a 12-h incubation by liquid-chromatography-coupled mass spectrometry (LC–MS); conditions: phocaeicola vulgatus, 2 µM
[12] = The drug is tested on Ruminococcus lactaris strain: ATCC29176 for biotransformation. The drug concentrations were measured before and after a 12-h incubation by liquid-chromatography-coupled mass spectrometry (LC–MS); conditions: 2 µM
[13] = The drug is tested on Dorea formicigenerans strain: ATCC27755 for biotransformation. The drug concentrations were measured before and after a 12-h incubation by liquid-chromatography-coupled mass spectrometry (LC–MS); conditions: 2 µM
[14] = The drug is tested on Providencia rettgeri strain: DSM1131 for biotransformation. The drug concentrations were measured before and after a 12-h incubation by liquid-chromatography-coupled mass spectrometry (LC–MS); type: ADME; design: dose 2 uM, timepoint 0 vs 12 hours; conditions: 2 µM
[15] = The drug is tested on Bacteroides coprophilus strain: DSM18228 for biotransformation. The drug concentrations were measured before and after a 12-h incubation by liquid-chromatography-coupled mass spectrometry (LC–MS); conditions: 2 µM
[16] = The drug is tested on Bacteroides uniformis strain: ATCC8492 for biotransformation. The drug concentrations were measured before and after a 12-h incubation by liquid-chromatography-coupled mass spectrometry (LC–MS); conditions: 2 µM
[17] = The drug is tested on Bacteroides ovatus strain: ATCC8483 for biotransformation. The drug concentrations were measured before and after a 12-h incubation by liquid-chromatography-coupled mass spectrometry (LC–MS); conditions: 2 µM
[18] = The drug is tested on Ruminococcus gnavus strain: ATCC29149 for biotransformation. The drug concentrations were measured before and after a 12-h incubation by liquid-chromatography-coupled mass spectrometry (LC–MS); conditions: mediterraneibacter gnavus, 2 µM
[19] = bifidobacterium adolescentis, 12 h, 2 µM
Description: The drug is tested on Bifidobacterium adolescentis strain: ATCC 15703 for biotransformation. The drug concentrations were measured before and after a 12-h incubation by liquid-chromatography-coupled mass spectrometry (LC–MS)

[20] = The drug is tested on Bacteroides fragilis strain: HMW615 for biotransformation. The drug concentrations were measured before and after a 12-h incubation by liquid-chromatography-coupled mass spectrometry (LC–MS); conditions: 2 µM

Row | Structure (SMILES) | Bacterial Biotransformation [1] | Bacterial Biotransformation [2] | Bacterial Biotransformation [3] | Bacterial Biotransformation [4] | Bacterial Biotransformation [5] | Bacterial Biotransformation [6] | Bacterial Biotransformation [7] | Bacterial Biotransformation [8] | Bacterial Biotransformation [9] | Bacterial Biotransformation [10] | Bacterial Biotransformation [11] | Bacterial Biotransformation [12] | Bacterial Biotransformation [13] | Bacterial Biotransformation [14] | Bacterial Biotransformation [15] | Bacterial Biotransformation [16] | Bacterial Biotransformation [17] | Bacterial Biotransformation [18] | Bacterial Biotransformation [19] | Bacterial Biotransformation [20]
1 | Cc1nc2n(c(=O)c1CCN1CCC(c3noc4cc(F)ccc34)CC1)CCCC2O (stereo not given) [PALIPERIDONE] | Compound NOT metabolized | Compound NOT metabolized | Compound metabolized | Compound metabolized | Compound metabolized | Compound metabolized | Compound metabolized | Compound metabolized | Compound metabolized | Compound metabolized | Compound metabolized | Compound metabolized | Compound metabolized | Compound metabolized | Compound NOT metabolized | Compound metabolized | Compound metabolized | Compound metabolized | Compound NOT metabolized | Compound NOT metabolized
2 | COc1c(C)c2c(c(O)c1C/C=C(\C)CCC(=O)OCCN1CCOCC1)C(=O)OC2 [MYCOPHENOLATE MOFETIL] | Compound metabolized | Compound metabolized | Compound metabolized | Compound metabolized | Compound metabolized | Compound metabolized | Compound metabolized | Compound metabolized | Compound metabolized | Compound metabolized | Compound metabolized | Compound metabolized | Compound metabolized | Compound metabolized | Compound metabolized | Compound metabolized | Compound metabolized | Compound metabolized | Compound metabolized | Compound metabolized
3 | CC[C@@H](CO)NC(=O)[C@@H]1C=C2c3cccc4c3c(cn4C)C[C@H]2N(C)C1.O=C(O)/C=C\C(=O)O [METHYSERGIDE MALEATE] | Compound metabolized | Compound metabolized | Compound metabolized | Compound metabolized | Compound metabolized | Compound metabolized | Compound metabolized | Compound metabolized | Compound metabolized | Compound metabolized | Compound metabolized | Compound metabolized | Compound metabolized | Compound metabolized | Compound metabolized | Compound metabolized | Compound metabolized | Compound metabolized | Compound metabolized | Compound NOT metabolized
4 | COc1ccc2[nH]c([S+]([O-])Cc3ncc(C)c(OC)c3C)nc2c1 (stereo not given) [OMEPRAZOLE] | Compound metabolized | Compound metabolized | Compound metabolized | Compound metabolized | Compound metabolized | Compound metabolized | Compound metabolized | Compound metabolized | Compound metabolized | Compound metabolized | Compound metabolized | Compound metabolized | Compound metabolized | Compound metabolized | Compound metabolized | Compound metabolized | Compound metabolized | Compound metabolized | Compound metabolized | Compound metabolized
